Values of other authors, collected in patent US20130071326A1, “UNIVERSAL CELL-DIRECTED THERANOSTICS” (Board of Regents of the University of Texas System, priority 2010, published 2013).

Test system: tumor
Conditions: conventional DOX treatments, at best

COc1cccc2c1C(=O)c1c(O)c3c(c(O)c1C2=O)C[C@@](O)(C(=O)CO)C[C@@H]3O[C@H]1C[C@H](N)[C@H](O)[C@H](C)O1 [DOX, doxorubicin]
accumulation of the drug at the tumor: 0.8 to 5 µg
